From US12139487B2, “Compounds and uses thereof” (Foghorn Therapeutics Inc., priority 2022, dated 2024)

Tested on: BRM-dependent transcription (BRG1 mutant lung cancer cell line A549)
Assay: BRM-dependent transcription, MMTV luciferase reporter in BRG1 mutant A549 cells
Assay type: cell-based
Settings: Table 11; for IC50: A549-MMTV luciferase reporter, dexamethasone induced, 6 hours; for Ratio (MDA-MMTV IC50 (μM) divided by A549-MMTV IC50 (μM)): MMTV luciferase reporter cell lines, selectivity BRG1/BRM
Description: The potential inhibitory effects of compounds on BRG1 and BRM dependent transcription was study by testing the activity of against the BRG1 mutant lung cancer cell line A549 and a MDA cell line with BRM removed by CRISPR. Both cell lines were genetically engineered with a BRG1 or BRM-dependent mouse mammary tumor virus luciferase reporter. Luciferase transcription was induced by dexamethasone in the presence of compound at different concentrations and luminescence was measured using a plate reader 6 hours after stimulation.

IC50 (Homo sapiens, A549, 6 h) | Ratio (MDA-MMTV IC50 (μM) divided by A549-MMTV IC50 (μM)) | IC50 | Structure (SMILES)
13.3 nM | 33.87 |  | [2H]C([2H])([2H])C([2H])([2H])Oc1nc(C(F)F)ccc1-c1ccc2cnc(CNC(=O)c3cc(Br)c4c(c3)S(=O)(=O)[C@@H](F)COC4)cc2n1 [Compound 486]
5.9 nM | 27.42 |  | O=C(NCc1cc2nc(-c3ccc([C@@H](F)CF)c(C4CC4)n3)ccc2cn1)c1cc(F)c2c(c1)S(=O)(=O)[C@@H](F)CCO2 [Compound 406]
16.9 nM | 32.94 |  | O=C(NCc1cc2nc(-c3cccc(C4CC4)n3)ccc2cn1)c1cc(C(F)F)c2c(c1)S(=O)(=O)[C@@H](F)COC2 [Compound 429]
18.6 nM | 42.97 |  | O=C(NCc1cc2nc(-n3cc(F)c(OC(F)F)n3)ccc2cn1)c1cc(Cl)c2c(c1)S(=O)(=O)[C@@H](F)COC2 [Compound 474]
16.3 nM | 23.28 |  | O=C(NCc1cc2nc(N3CCCc4cc(OC(F)(F)F)cnc43)ccc2cn1)c1cc(F)c2c(c1)S(=O)(=O)[C@@H](F)CCO2 [Compound 352]
20.3 nM | 26.26 |  | O=C(NCc1cc2nc(-c3ccc(OCCO)c(C4CC4)n3)ccc2cn1)c1cc(Cl)c2c(c1)S(=O)(=O)[C@@H](F)COC2 [Compound 428]
 | 38.20 | 5.9 nM | C[C@@H]1CCN1c1cnc2c(-c3ccc4cnc(CNC(=O)c5cc(Cl)c6c(c5)S(=O)(=O)[C@@H](F)COC6)cc4n3)cccc2c1 [Compound 498]
 | 35.51 | 20.4 nM | CCOc1nc([C@@H](F)CF)ccc1-c1ccc2cnc(CNC(=O)c3cc(Br)c4c(c3)S(=O)(=O)[C@@H](F)COC4)cc2n1 [Compound 517]
20.6 nM | 32.84 |  | COCCOc1cnc2c(c1)CCCN2c1ccc2cnc(CNC(=O)c3cc(Br)c4c(c3)S(=O)(=O)[C@@H](F)COC4)cc2n1 [Compound 427]
19.9 nM | 44.98 |  | O=C(NCc1cc2nc(-c3cccc(OC(F)F)n3)ccc2cn1)c1cc(Cl)c2c(c1)S(=O)(=O)[C@@H](F)CCO2 [Compound 346]
23.7 nM | 31.82 |  | COCCOc1cnc2c(c1)OCCN2c1ccc2cnc(CNC(=O)c3cc(Br)c4c(c3)S(=O)(=O)[C@@H](F)CCO4)cc2n1 [Compound 424]
15.3 nM | 22.47 |  | O=C(NCc1cc2nc(-c3cccc(C4CC4(F)F)n3)ccc2cn1)c1cc(F)c2c(c1)S(=O)(=O)[C@@H](F)CCO2 (stereo partly drawn) [Compound 336]
25.7 nM | 24.69 |  | O=C(NCc1cc2nc(-c3ccnc(C4CC4(F)F)n3)ccc2cn1)c1cc(Cl)c2c(c1)S(=O)(=O)[C@@H](F)COC2 (stereo partly drawn) [Compound 420]
 | 29.41 | 12.4 nM | C[C@@H]1CCN1c1cnc2c(-c3ccc4cnc(CNC(=O)c5cc(Cl)c6c(c5)S(=O)(=O)[C@@H](F)COC6)cc4n3)cccc2c1 [Compound 497]
8.1 nM | 25.94 |  | COCCOc1cnc2c(c1)C(F)(F)CCN2c1ccc2cnc(CNC(=O)c3cc(Br)c4c(c3)S(=O)(=O)[C@@H](F)CCO4)cc2n1 [Compound 462]
 | 31.51 | 12.1 nM | CCOc1nc([C@@H](F)CF)ccc1-c1ccc2cnc(CNC(=O)c3cc(Cl)c4c(c3)S(=O)(=O)[C@@H](F)COC4)cc2n1 [Compound 516]
13 nM | 25.93 |  | COCCc1ccc2c(n1)N(c1ccc3cnc(CNC(=O)c4cc(F)c5c(c4)S(=O)(=O)[C@@H](F)CCO5)cc3n1)CCO2 [Compound 432]
17 nM | 25.08 |  | C[C@@H]1CN(c2cccc(-c3ccc4cnc(CNC(=O)c5cc(C6CC6)c6c(c5)S(=O)(=O)[C@@H](F)CCO6)cc4n3)n2)C[C@H](C)O1 [Compound 350]
5.8 nM | 35.93 |  | COCCOc1cnc2c(c1)OCCN2c1ccc2cnc(CNC(=O)c3cc(C(F)F)c4c(c3)S(=O)(=O)[C@@H](F)COC4)cc2n1 [Compound 437]

Second part, the compound before the results:

Structure (SMILES) | IC50 (Homo sapiens, A549, 6 h) | Ratio (MDA-MMTV IC50 (μM) divided by A549-MMTV IC50 (μM)) | IC50
O=C(NCc1cc2nc(-c3ccc([C@@H](F)C(F)F)c(C4CC4)n3)ccc2cn1)c1cc(Br)c2c(c1)S(=O)(=O)[C@@H](F)COC2 [Compound 483] | 11.1 nM | 28.21 | 
O=C(NCc1cc2nc(-c3ccnc(N4CCC4)n3)ccc2cn1)c1cc(F)c2c(c1)S(=O)(=O)[C@@H](F)CCO2 [Compound 343] | 11.1 nM | 24.93 | 
O=C(NCc1cc2nc(N3CCOc4cc(N5CC(F)(F)C5)cnc43)ccc2cn1)c1cc(F)c2c(c1)S(=O)(=O)[C@@H](F)CCO2 [Compound 353] | 15.5 nM | 21.63 | 
COC1(c2cccc(-c3ccc4cnc(CNC(=O)c5cc(F)c6c(c5)S(=O)(=O)[C@@H](F)CCO6)cc4n3)n2)CC1 [Compound 403] | 14 nM | 27.49 | 
COc1nc([C@@H](F)CF)ccc1-c1ccc2cnc(CNC(=O)c3cc(Br)c4c(c3)S(=O)(=O)[C@@H](F)CCO4)cc2n1 [Compound 383] | 21.8 nM | 24.64 | 
[2H]C([2H])([2H])OCCOc1cnc2c(c1)OCCN2c1ccc2cnc(CNC(=O)c3cc(C(F)F)c4c(c3)S(=O)(=O)[C@@H](F)COC4)cc2n1 [Compound 484] | 5.4 nM | 28.00 | 
COCCOc1nn(-c2ccc3cnc(CNC(=O)c4cc(F)c5c(c4)S(=O)(=O)[C@@H](F)COC5)cc3n2)cc1F [Compound 508] | 11.5 nM | 21.72 | 
CCOc1nc(C(F)F)ccc1-c1ccc2cnc(CNC(=O)c3cc(C(F)F)c4c(c3)S(=O)(=O)[C@@H](F)COC4)cc2n1 [Compound 430] | 8.1 nM | 40.24 | 
C#Cc1cc(C(=O)NCc2cc3nc(-c4cccc(N5C[C@@H](C)O[C@@H](C)C5)n4)ccc3cn2)cc2c1COC[C@H](F)S2(=O)=O [Compound 393] | 20.3 nM | 36.31 | 
[2H]C([2H])([2H])OC([2H])([2H])C([2H])([2H])Oc1cnc2c(c1)OCCN2c1ccc2cnc(CNC(=O)c3cc(C(F)F)c4c(c3)S(=O)(=O)[C@@H](F)COC4)cc2n1 [Compound 500] | 7.7 nM | 21.12 | 
CCOc1nc([C@H](F)CF)ccc1-c1ccc2cnc(CNC(=O)c3cc(F)c4c(c3)S(=O)(=O)[C@@H](F)CCO4)cc2n1 [Compound 390] | 7.4 nM | 22.68 | 
CCOc1ccc(-c2ccc3cnc(CNC(=O)c4cc(Cl)c5c(c4)S(=O)(=O)[C@@H](F)CCO5)cc3n2)nc1C1CC1(F)F (stereo partly drawn) [Compound 370] | 20.5 nM | 27.27 | 
CN1Cc2c(Cl)cc(C(=O)NCc3cc4nc(-c5cccc(OC(F)F)n5)ccc4cn3)cc2S(=O)(=O)[C@H](F)C1 [Compound 466] | 24.6 nM | 48.16 | 
O=C(NCc1cc2nc(-c3ccnc(N4CCCC4)n3)ccc2cn1)c1cc(Cl)c2c(c1)S(=O)(=O)[C@@H](F)CCO2 [Compound 345] | 15.6 nM | 21.59 | 
O=C(NCc1cc2nc(-c3ccc([C@H](F)C(F)F)c(C4CC4)n3)ccc2cn1)c1cc(C(F)F)c2c(c1)S(=O)(=O)[C@@H](F)COC2 [Compound 490] | 7.9 nM | 26.59 | 
[2H]C([2H])([2H])C([2H])([2H])Oc1nc([C@H](F)CF)ccc1-c1ccc2cnc(CNC(=O)c3cc(C(F)F)c4c(c3)S(=O)(=O)[C@@H](F)COC4)cc2n1 [Compound 478] | 10.4 nM | 33.55 | 
COc1nc(-c2ccc3cnc(CNC(=O)c4cc(Cl)c5c(c4)S(=O)(=O)[C@@H](F)CCO5)cc3n2)ccc1C(F)F [Compound 360] | 19.9 nM | 23.20 | 
[2H]C([2H])([2H])C([2H])([2H])Oc1ccc(-c2ccc3cnc(CNC(=O)c4cc(C(F)F)c5c(c4)S(=O)(=O)[C@@H](F)COC5)cc3n2)nc1C1CC1(F)F (stereo partly drawn) [Compound 440] | 16.1 nM | 53.01 | 
COc1nc([C@@H](F)CF)ccc1-c1ccc2cnc(CNC(=O)c3cc(Cl)c4c(c3)S(=O)(=O)[C@@H](F)CCO4)cc2n1 [Compound 382] | 9.6 nM | 40.88 | 
[2H]C([2H])([2H])Oc1ccc(-c2ccc3cnc(CNC(=O)c4cc(Br)c5c(c4)S(=O)(=O)[C@@H](F)COC5)cc3n2)nc1C1CC1(F)F (stereo partly drawn) [Compound 480] | 9.4 nM | 38.09 | 
CCOc1nc(C(C)(F)F)ccc1-c1ccc2cnc(CNC(=O)c3cc(F)c4c(c3)S(=O)(=O)[C@@H](F)COC4)cc2n1 [Compound 471] |  | 25.44 | 8.2 nM
O=C(NCc1cc2nc(-c3cccc(OCC(F)F)n3)ccc2cn1)c1cc(Cl)c2c(c1)S(=O)(=O)[C@@H](F)COC2 [Compound 387] | 17.3 nM | 34.06 | 
[2H]C([2H])([2H])Oc1ccc(-c2ccc3cnc(CNC(=O)c4cc(Cl)c5c(c4)S(=O)(=O)[C@@H](F)COC5)cc3n2)nc1C1CC1(F)F (stereo partly drawn) [Compound 506] | 10.2 nM | 42.09 | 
